# Measurements taken from article PMC10920834, “Synthesis, anticancer activity, and molecular docking of half-sandwich iron(II) cyclopentadienyl complexes with maleimide and phosphine or phosphite ligands” (Scientific Reports, 2024).
# Assays:
# [1] = tested on: Genomic DNA isolated from A549 cell line; test: DNA titration (UV-Vis absorption spectra); format: binding, human; conditions: 0.5, 5 and 50 µM, 15 min, room temp.
# Procedure: Genomic DNA was isolated from A549 cell line using a commercially available kit (Extractme Genomic DNA Kit, Blirt, Gdansk, Poland) following the manufacturer’s protocol. The concentration and purity of DNA were measured by BioTek Synergy HT Microplate Reader (BioTek Instruments, Winooski, VT, USA). Genomic DNA in the amount of 20 µg was incubated with complex 2b for 15 min at room temp. at concentrations 0.5, 5, and 50 µM in a final volume of 2 ml. Next UV–Vis absorbance spectra (240–300 nm) was measured by UV–Vis JASCO V-630 spectrophotometer (JASCO, Japan).
# A549 cells [2] = test: Alkaline comet assay, A549 cells; format: cell-based, human; conditions: 2 h, 50 μM
# Procedure: (§1) Selected iron(II) complexes were added to the suspension of the cells to give final concentrations of 1, 5, 10, 25 and 50 μM. HL-60 and A549 cells were incubated with the complexes for 2 h at 37 °C. The comet assay was performed under alkaline conditions according to the procedure of Tokarz et al.[45]. […] Next, the cells were lysed for 1 h at 4 °C in a buffer containing 2.5 M NaCl, 0.1 M EDTA, 10 mM Tris, 1% Triton X-100, pH 10. Following the lysis, the slides were placed in an electrophoresis unit. DNA was allowed to unwind for 20 min in the solution containing 300 mM NaOH and 1 mM EDTA, pH > 13. […] After separation, the slides were washed in water, drained, stained with 2 μg/ml DAPI and covered with cover slips. As a prevention from additional DNA damage, the procedure described above was conducted under limited light or in the dark. Each experiment included the positive control—cells incubated with H2O2 at 20 µM for 15 min on ice (data not shown).
# (§2) The comets obtained after single cell gel electrophoresis were analysed in the following manner. […] Hundred images of singular comets were randomly selected from each sample and the mean value of DNA in comet tail was taken as an index of DNA damage (expressed in percent).
# PBM cells = test: Cell viability resazurin assay, PBM cells; format: cell-based, human; conditions: for viability of PBM cells relative to control: ± SD
# Description: Peripheral blood mononuclear (PBM) cells were isolated from a leukocyte-buffy coat collected from the blood of healthy, non-smoking donors at the Blood Bank in Lodz, Poland. The study protocol received approval from the Committee for Research on Human Subjects of the University of Lodz (17/KBBN-UŁ/III/2019). The initial step of isolation process involved mixing buffy coats with PBS in a 1:1 ratio. Subsequently, the mixture was centrifuged using a density gradient of Lymphosep (Cytogen, Zgierz, Poland) at 2200 RPM for 20 min, employing the lowest values for acceleration and deceleration. PBM cells were collected and washed three times by centrifugation with 1 × PBS. Following isolation, the cells were suspended in RPMI 1640 medium.
# (§3) Firstly, resazurin salt powder was dissolved in sterile 1 × PBS. Cells were then seeded on the 96-well plates in the count of 1 × 10^4 in the case of HL-60 cells and of 5 × 10^4 for PBM cells and of 5 × 10^3 for A549 cells per well. A549 cells were seeded 24 h prior to treatment with the complexes to allow cell adherence to 96-well plate. Iron(II) complexes were added to wells to obtain final concentrations of 0.5, 1, 2.5, 5, 10, 25, 50, 100 and 250 μM. Subsequently, plates were incubated at 37 °C in 5% CO2 for 2 h and 24 h. After that 10 μl of resazurin salt was added to each well and plates again were incubated in 37 °C in 5% CO2 for 2 h. Finally, fluorescence was measured with microplate reader Synergy HT (Bio-Tek Instruments, USA) using an excitation wavelength of 530/25 and an emission wavelength of 590/35 nm. The effects of iron(II) complexes were calculated as the percentage of control fluorescence. IC50 (half maximal inhibitory concentration) values were calculated using a website algorithm (https://www.aatbio.com/tools/ic50-calculator). All assays were performed in octuplicate.
# HL-60 cells [3] = test: Cell viability resazurin assay, HL-60 cells; format: cell-based, human; conditions: for viability of HL-60 cells relative to control: ± SD
# Procedure: (§4) The A549 (human non-small cell lung cancer) cell line was obtained from the American Type Culture Collection (ATCC) and cultured in Dulbecco's Modified Eagle Medium (DMEM) with 10% fetal bovine serum (FBS), 2 mM L-Glutamine, 25 mM HEPES and penicillin/streptomycin solution (100 U/ml and 100 µg/ml, respectively). The HL-60 (human promyelocytic leukemia) cell line was also obtained from the American Type Culture Collection (ATCC) and cultured in Iscove’s Modified Dulbecco's Medium (IMDM) with 15% fetal bovine serum (FBS), 2 mM L-Glutamine, 25 mM HEPES and penicillin/streptomycin solution (100 U/ml and 100 µg/ml, respectively). Both cell lines were cultured in flasks at 37 °C in 5% CO2 and sub-cultured every 2–3 days to maintain exponential growth.
# as §3
# A549 cells [4] = test: Cell viability resazurin assay, A549 cells; format: cell-based, human; conditions: for viability of A549 cells relative to control: ± SD
# Procedure: as §4, §3
# HL-60 cells [5] = test: Alkaline comet assay, HL-60 cells; format: cell-based, human
# Procedure: as §1, §2
structure (smiles),measurement,setting,value
"O=C1C=CC(=O)[N-]1.[C-]#[O+].[Fe+2].c1cc[cH-]c1.c1coc(P(c2ccco2)c2ccco2)c1 [2b, CpFe(CO)(P(Fu)3)(η^1-N-maleimidato)]",interaction with DNA (UV-Vis spectroscopic titration),[1],does not interact in an intercalative manner with DNA
same,percentage of DNA damage in tail (alkaline comet assay),A549 cells [2],about 2%
same,viability of PBM cells relative to control,"PBM cells; 2 h incubation, 0.5 µM",98.07 ± 0.32%
same,viability of PBM cells relative to control,"PBM cells; 2 h incubation, 1 µM",97.62 ± 0.66%
same,viability of PBM cells relative to control,"PBM cells; 2 h incubation, 2.5 µM",96.06 ± 2.38%
same,viability of PBM cells relative to control,"PBM cells; 2 h incubation, 5 µM",97 ± 1.29%
same,viability of PBM cells relative to control,"PBM cells; 2 h incubation, 10 µM",96.53 ± 1.24%
same,viability of PBM cells relative to control,"PBM cells; 2 h incubation, 25 µM",93.16 ± 4.6%
same,viability of PBM cells relative to control,"PBM cells; 2 h incubation, 50 µM",79.21 ± 1.4%
same,viability of PBM cells relative to control,"PBM cells; 2 h incubation, 100 µM",78.49 ± 1.24%
same,viability of PBM cells relative to control,"PBM cells; 2 h incubation, 250 µM",75.23 ± 0.62%
same,IC50,PBM cells; 24 h incubation,> 250 µM
same,viability of PBM cells relative to control,"PBM cells; 24 h incubation, 0.5 µM",105.37 ± 7.62%
same,viability of PBM cells relative to control,"PBM cells; 24 h incubation, 1 µM",101.81 ± 0.86%
same,viability of PBM cells relative to control,"PBM cells; 24 h incubation, 2.5 µM",97.1 ± 1.83%
same,viability of PBM cells relative to control,"PBM cells; 24 h incubation, 5 µM",94.2 ± 4.56%
same,viability of PBM cells relative to control,"PBM cells; 24 h incubation, 10 µM",94.94 ± 2.09%
same,viability of PBM cells relative to control,"PBM cells; 24 h incubation, 25 µM",88.93 ± 2.18%
same,viability of PBM cells relative to control,"PBM cells; 24 h incubation, 50 µM",85.34 ± 2.58%
same,viability of PBM cells relative to control,"PBM cells; 24 h incubation, 100 µM",83.38 ± 3.4%
same,viability of PBM cells relative to control,"PBM cells; 24 h incubation, 250 µM",77.59 ± 2.06%
same,viability of HL-60 cells relative to control,"HL-60 cells [3]; 2 h incubation, 0.5 µM",106.51 ± 2.33%
same,viability of HL-60 cells relative to control,"HL-60 cells [3]; 2 h incubation, 1 µM",106.74 ± 1.35%
same,viability of HL-60 cells relative to control,"HL-60 cells [3]; 2 h incubation, 2.5 µM",103.04 ± 1.98%
same,viability of HL-60 cells relative to control,"HL-60 cells [3]; 2 h incubation, 5 µM",104.72 ± 2.62%
same,viability of HL-60 cells relative to control,"HL-60 cells [3]; 2 h incubation, 10 µM",104.03 ± 2.08%
same,viability of HL-60 cells relative to control,"HL-60 cells [3]; 2 h incubation, 25 µM",95.86 ± 2.66%
same,viability of HL-60 cells relative to control,"HL-60 cells [3]; 2 h incubation, 50 µM",90.45 ± 0.98%
same,viability of HL-60 cells relative to control,"HL-60 cells [3]; 2 h incubation, 100 µM",76.15 ± 3.1%
same,viability of HL-60 cells relative to control,"HL-60 cells [3]; 2 h incubation, 250 µM",21.23 ± 1.56%
same,IC50,HL-60 cells [3]; 24 h incubation,10 µM
same,viability of HL-60 cells relative to control,"HL-60 cells [3]; 24 h incubation, 0.5 µM",107.57 ± 3.87%
same,viability of HL-60 cells relative to control,"HL-60 cells [3]; 24 h incubation, 1 µM",105.5 ± 3.13%
same,viability of HL-60 cells relative to control,"HL-60 cells [3]; 24 h incubation, 2.5 µM",97.63 ± 0.5%
same,viability of HL-60 cells relative to control,"HL-60 cells [3]; 24 h incubation, 5 µM",79.34 ± 1.21%
same,viability of HL-60 cells relative to control,"HL-60 cells [3]; 24 h incubation, 10 µM",51.6 ± 1.43%
same,viability of HL-60 cells relative to control,"HL-60 cells [3]; 24 h incubation, 25 µM",38.21 ± 0.22%
same,viability of HL-60 cells relative to control,"HL-60 cells [3]; 24 h incubation, 50 µM",35.8 ± 2.09%
same,viability of HL-60 cells relative to control,"HL-60 cells [3]; 24 h incubation, 100 µM",25.41 ± 1.92%
same,viability of HL-60 cells relative to control,"HL-60 cells [3]; 24 h incubation, 250 µM",17.52 ± 1.12%
same,viability of A549 cells relative to control,"A549 cells [4]; 2 h incubation, 0.5 µM",84.30 ± 11.24%
same,viability of A549 cells relative to control,"A549 cells [4]; 2 h incubation, 1 µM",80.74 ± 14%
same,viability of A549 cells relative to control,"A549 cells [4]; 2 h incubation, 2.5 µM",82.33 ± 9.73%
same,viability of A549 cells relative to control,"A549 cells [4]; 2 h incubation, 5 µM",83.32 ± 11.51%
same,viability of A549 cells relative to control,"A549 cells [4]; 2 h incubation, 10 µM",101.28 ± 15.65%
same,viability of A549 cells relative to control,"A549 cells [4]; 2 h incubation, 25 µM",114.98 ± 11.35%
same,viability of A549 cells relative to control,"A549 cells [4]; 2 h incubation, 50 µM",123.09 ± 7.89%
same,viability of A549 cells relative to control,"A549 cells [4]; 2 h incubation, 100 µM",84.95 ± 8.31%
same,viability of A549 cells relative to control,"A549 cells [4]; 2 h incubation, 250 µM",40.75 ± 4.24%
same,IC50,A549 cells [4]; 24 h incubation,73.5 µM
same,viability of A549 cells relative to control,"A549 cells [4]; 24 h incubation, 0.5 µM",81.57 ± 14.09%
same,viability of A549 cells relative to control,"A549 cells [4]; 24 h incubation, 1 µM",74.40 ± 19.47%
same,viability of A549 cells relative to control,"A549 cells [4]; 24 h incubation, 2.5 µM",73.54 ± 23.46%
same,viability of A549 cells relative to control,"A549 cells [4]; 24 h incubation, 5 µM",61.87 ± 14.65%
same,viability of A549 cells relative to control,"A549 cells [4]; 24 h incubation, 10 µM",87.91 ± 9.79%
same,viability of A549 cells relative to control,"A549 cells [4]; 24 h incubation, 25 µM",110.30 ± 11.49%
same,viability of A549 cells relative to control,"A549 cells [4]; 24 h incubation, 50 µM",91.31 ± 16.37%
same,viability of A549 cells relative to control,"A549 cells [4]; 24 h incubation, 100 µM",13.33 ± 3.51%
same,viability of A549 cells relative to control,"A549 cells [4]; 24 h incubation, 250 µM",1.39 ± 0.12%
same,"DNA damage in HL-60 cells (alkaline comet assay), in words","HL-60 cells [5]; 2 h incubation, 1-50 μM tested",induced DNA damage
same,DNA in tail (alkaline comet assay),"HL-60 cells [5]; HL-60 cells, 2 h, 50 μM",6%
